Test results as given in patent US6492124B1, “Trance activated signal transduction pathways in osteoclasts” (The Rockefeller University, priority 1999, dated 2002).

Key:
Format in all cases: cell-based, mouse
p44/42 ERK = p44/42 ERK phosphorylation in osteoclasts and dendritic cells (Western blot); conditions: after 20 min of TRANCE stimulation
Experimental: FIG. 1. TRANCE activates p44/42 ERK, NF-κB and PKB in osteoclasts and dendritic cells. (A) Mature bone marrow-derived osteoclasts were stimulated for the indicated times with recombinant hCD8-TRANCE (TRANCE; 1 μg/ml). Levels of phosphorylated forms of p44/p42 ERK (p44 ERK^P and p42 ERK^P), IκBα (IκB-α^P) and PKB (PKB^P) in whole cell extracts were determined using phospho-peptide-specific antibodies as indicated in the figure. The membranes were stripped and incubated with antibodies against the p44/p42 ERK, IκB-α, and PKB as indicated to confirm that similar amounts of whole cell extracts were analyzed. Note the decrease of IκB-α after 10 min of treatment due to its degradation. (B) as in (A) except the use of mature bone marrow-derived dendritic cells instead of osteoclasts.
Cell stimulation, cell transfection and in vitro assays. In vitro differentiated mature dendritic cells, macrophages and osteoclasts were washed to remove exogenous growth factors, cultured in media with low serum (0.5% FCS, 6 hours), then stimulated by adding various cytokines in the presence or absence of inhibitors for various times as indicated. After stimulation, the cells were washed in ice-cold PBS, and subjected to Western blot analysis or immunoprecipitation as described below. […]

c-Src = c-Src immunoprecipitate in vitro kinase assay with SAM68 after TRANCE stimulation of cells
Experimental: FIG. 3. c-Src is required for TRANCE-induced PKB activation and osteoclast survival. (A) c-Src was immunoprecipitated from osteoclasts, dendritic cells and macrophages stimulated with TRANCE (1 μg/ml) for the indicated times using an anti-c-Src-specific monoclonal antibody (327). PTK activity of the c-Src immunprecipitates were measured in vitro using SAM68, a PTK specific substrate. The degree of SAM68 phosphorylation was determined by Western blot analysis using an anti-phospho-tyrosine antibody (4G10) and densitometry. Note that c-Src kinase activity was not detectable in TRANCE-treated macrophages most likely due to low levels of c-Src in these cells (Lacey, et al., supra, 1998). (B) Osteoclasts derived from wild type and c-Src deficient mice were stimulated with TRANCE (5 μg/ml) for 10 min and the levels of phosphorylated PKB (PKB^P), total PKB, and total IκBα were determined as in FIG. 1. […] TRAP solution assays were performed and percent survival calculated. […] Osteoclasts were detected by TRAP solution assays. […]
FIG. 5. […] PTK activity of the c-Src immunoprecipitates was measured by in vitro kinase assays using SAM68 as a PTK substrate. The degree of SAM68 phosphorylation (SAM68^P) was determined by Western blot analysis using a phospho-tyrosine specific antibody (4G10) followed by densitometry. […] The degree of SAM68 phosphorylation (SAM68^P) was determined as in (A). […]

mature osteoclasts = experiment: Osteoclast survival assay (TRAP solution assay); conditions: 24 hours; TRANCE 5 μg/ml or CSF-1 10 ng/ml
Experimental: TRAP solution assays were performed and percent survival calculated. The experiment was performed in triplicate and the mean values with positive standard deviations are shown. […] (E) Mature osteoclasts were washed extensively and then cultured for an additional 24 hr in media without (−) or with TRANCE (5 μg/ml; +) in the absence or presence of increasing doses (200 nM and 800 nM) of LY294002. TRAP solution assays were performed and percent survival was as described in Experimental Procedures. The experiment was performed in triplicate and the mean values with positive standard deviations are shown.
Osteoclast survival assays. In vitro differentiated mature osteoclasts were washed 3 times in media then further cultured for 24 hr in media alone (control) or in media with TRANCE (5 μg/ml) or CSF-1 (10 ng/ml) in the presence or absence of LY294002 as indicated.
Specific cell survival (%)=(A405, 24 hr−A405. background)*100/(A405, 0 hr−A405, background)

TNF-related activation-induced cytokine [TRANCE]
ERK phosphorylation (p44/42 ERK): transiently induced
c-Src kinase activity (c-Src; TRANCE-treated macrophages): no detectable
induction of c-Src kinase activity (c-Src; osteoclasts and dendritic cells, TRANCE 1 μg/ml): approximately 2 fold
cytokine-promoted survival in c-Src−/− osteoclasts compared to wild-type (mature osteoclasts): reduced
